US10813944B2, “Cyclodextrins as procoagulants” (STICHTING SANQUIN BLOEDVOORZIENING, priority 2016, dated 2020)

What was measured:
[1] = tested on: thrombin generation in pooled normal plasma; assay: Calibrated Automated Thrombogram thrombin generation assay in pooled normal plasma; type: biochemical, human; details: no anticoagulant; cyclodextrin 100 μM unless otherwise indicated; 1 pM TF
Protocol: (§1) FIGS. 3-8, 12, 14-19 and 22-27: Pooled normal plasma was spiked with cyclodextrins (100 μM, unless otherwise indicated) and anticoagulants. The concentrations of the anticoagulants were 100 ng/ml for dabigatran (A), 100 ng/ml for rivaroxaban (B), 60 ng/ml for apixaban (C), 60 ng/ml for edoxaban (D). The plasmas were subjected to thrombin generation analysis as described in the Materials and Methods section with 1 pM tissue factor (TF) as initiator of coagulation.
(§2) The Calibrated Automated Thrombogram® assays the generation of thrombin in clotting plasma using a microtiter plate reading fluorometer (Fluoroskan Ascent, ThermoLab systems, Helsinki, Finland) and Thrombinoscope® software (Thrombinoscope BV, Maastricht, The Netherlands). The assay was carried out as described by Hemker et al. (Pathofysiol. IIaemost. Thromb. 2003, 33, 4-15), and the Thrombinoscope® manual. Coagulation was triggered by recalcification in the presence of 1 or 5 pM recombinant human tissue factor (Innovin®, Siemens, Marburg, Germany), 4 μM phospholipids, and 417 μM fluorogenic substrate Z-Gly-Gly-Arg-AMC (Bachem, Bubendorf, Switzerland). Fluorescence was monitored using the Fluoroskan Ascent fluorometer (ThermoLabsystems, Helsinki, Finland), and the lag time, peak thrombin, velocity index and area under the curve (ETP) were calculated using the Thrombinoscope® software (Thrombinoscope BV).
Thrombin generation analyses were performed in pooled normal plasma with and without the addition of anticoagulants.

[2] = tested on: mice anticoagulated with rivaroxaban; assay: In vivo saphenous vein bleeding model in mice anticoagulated with rivaroxaban
Protocol: FIG. 29: In vivo analysis of procoagulant potential of OK-1111 and OKL-1147. Except for controls, animals were treated with rivaroxaban for 4 days and cyclodextrins were administered 5 min prior bleeding assay.
All animal protocols were approved by the Institutional Animal Care and Use Committee of the University of North Carolina. C57BL6/J mice were purchased from Charles Rivers Laboratories (Willmington, Mass.). Bleeding studies were done essentially as previously described Pastoft et al. (Haemophilia 2012; 18:782-8). Mice were anesthetized with isoflurane throughout all procedures. The hair on the ventral side of both hind limbs was removed. The animals were placed supine on a temperature and ECG monitoring board. The paws were gently restrained by looping soft polyethylene tubing around them and attaching the tubing to the ECG board. The skin on the left and right ventral hind limb was incised which exposes a length of the saphenous neurovascular bundle; the bundle was covered with normal saline to prevent drying. To assess haemostasis, the right saphenous vein was transected by piercing it with a 23-G needle followed by a longitudinal incision made in the distal portion of the vessel. Blood was gently wicked away until haemostasis occurred. The clot was then removed to restart bleeding and the blood was again wicked away until haemostasis occurs again. Clot disruption was repeated after every incidence of haemostasis for 30 minutes. Mice were fed chow that contained 0.1 mg rivaroxaban per g of chow. The mice were on this diet for 4 days to allow them to reach a steady state. Cyclodextrins were administered by a tail vein injection 5 minutes before the start of the bleeding assay. Two parameters were measured: 1) the number of times that haemostasis occurs in a 30 minute period, and 2) the time required for each haemostasis.

[3] = tested on: plasma deficient in coagulation factor VIII; assay: Thrombin generation assay in plasma deficient in coagulation factor VIII; type: biochemical, human
Protocol: FIG. 20: Plasma deficient in coagulation factor VIII was spiked with cyclodextrin OKL-1111 (A), OKL-1180 (B), and OKL-1187 (C) at the indicated concentrations.
as §2

[4] = tested on: plasma deficient in coagulation factor IX; assay: Thrombin generation assay in plasma deficient in coagulation factor IX; type: biochemical, human
Protocol: as §2

[5] = tested on: thrombin generation in pooled normal plasma spiked with anticoagulants; assay: Thrombin generation assay in pooled normal plasma spiked with anticoagulants; type: biochemical, human; details: for effect on the anticoagulant effect of apixaban: apixaban 60 ng/ml; for effect on the anticoagulant effect of apixaban / effect on the anticoagulant effect of dabigatran / effect on the anticoagulant effect of edoxaban / effect on the anticoagulant effect of rivaroxaban: cyclodextrin 100 μM, 1 pM TF; for effect on the anticoagulant effect of dabigatran: dabigatran 100 ng/ml; for effect on the anticoagulant effect of edoxaban: edoxaban 60 ng/ml; for effect on the anticoagulant effect of rivaroxaban: rivaroxaban 100 ng/ml
Protocol: as §1
FIG. 9: Pooled normal plasma was spiked with OKL-1111 (100 μM, unless otherwise indicated (A)) and anticoagulants (B-E). The concentrations of the anticoagulants were 100 ng/ml for dabigatran (B), 100 ng/ml for rivaroxaban (C), 60 ng/ml for apixaban (D), 60 ng/ml for edoxaban (E). The plasmas were subjected to thrombin generation analysis as described in the Materials and Methods section with 1 pM tissue factor (TF) as initiator of coagulation.
FIG. 10: Pooled normal plasma was spiked with OKL-1111 (100 μM) and anticoagulants (A-F). The concentrations of the anticoagulants were 2 μg/ml for fondaparinux (A), 0.4 U/ml for nadroparin (B), 0.1 U/ml for tinzaparin (C), 0.03 U/ml for unfractionated heparin (UFH) (D), 0.5 U/ml for hirudin (E) and 10 μg/ml for bivalirudin (F). The plasmas were subjected to thrombin generation analysis as described in the Materials and Methods section with 1 pM tissue factor (TF) as initiator of coagulation.
as §2

[6] = tested on: plasma of a hemophilia A patient containing anti-FVIII antibodies; assay: Thrombin generation in plasma of a hemophilia A patient with anti-factor VIII antibodies; type: biochemical, human; details: anti-FVIII antibodies 50 BU
Protocol: FIG. 28: Effect of OKL-1111 (A), OKL-1180 (B) and OKL-1187 (C) on coagulation in plasma of a hemophilia A patient with anti-factor VIII antibodies. BU=Bethesda Units.
as §2
The patient had developed antibodies against factor VIII prior to plasma withdrawal. The plasma contained high levels of anti-FVIII antibodies (50 BU).

Row | SMILES | procoagulant effect in normal plasma [1] | clotting times ([2]; mice fed rivaroxaban for 4 days, cyclodextrin by tail vein injection 5 min before bleeding assay, OKL-1111 dose expected to give 25 μM in plasma) | procoagulant effect in factor VIII deficient plasma [3] | procoagulant activity in factor IX deficient plasma [4] | procoagulant effect in plasma containing anticoagulants (not specified / NOACs) [5] | effect on the anticoagulant effect of apixaban [5] | effect on the anticoagulant effect of dabigatran [5] | effect on the anticoagulant effect of edoxaban [5] | effect on the anticoagulant effect of rivaroxaban [5] | thrombin generation in hemophilia A patient plasma [6] | number of clots in 30 minutes ([2]; mice fed rivaroxaban (0.1 mg per g of chow, 4 days), no cyclodextrin, non-anticoagulated about 20-25) | bleeding time ([2]; mice fed rivaroxaban versus non-anticoagulated mouse)
1 | NCC1OC2OC3C(CN)OC(OC4C(CN)OC(OC5C(CN)OC(OC6C(CN)OC(OC7C(CN)OC(OC8C(CN)OC(OC9C(CN)OC(OC1C(O)C2O)C(O)C9O)C(O)C8O)C(O)C7O)C(O)C6O)C(O)C5O)C(O)C4O)C(O)C3O (stereo not drawn) [OKL-1147, reference compound] | no procoagulant effect | without any significant effect | – | – | – | – | – | – | – | – | – | –
2 | O=C(O)CCCCSCC1OC2OC3C(CSCCCCC(=O)O)OC(OC4C(CSCCCCC(=O)O)OC(OC5C(CSCCCCC(=O)O)OC(OC6C(CSCCCCC(=O)O)OC(OC7C(CSCCCCC(=O)O)OC(OC8C(CSCCCCC(=O)O)OC(OC9C(CSCCCCC(=O)O)OC(OC1C(O)C2O)C(O)C9O)C(O)C8O)C(O)C7O)C(O)C6O)C(O)C5O)C(O)C4O)C(O)C3O (stereo not drawn) [OKL-1171] | significant procoagulant activity | – | procoagulant effects | – | – | – | – | – | – | – | – | –
3 | O=C(O)CCCCCCSCC1OC2OC3C(CSCCCCCCC(=O)O)OC(OC4C(CSCCCCCCC(=O)O)OC(OC5C(CSCCCCCCC(=O)O)OC(OC6C(CSCCCCCCC(=O)O)OC(OC7C(CSCCCCCCC(=O)O)OC(OC8C(CSCCCCCCC(=O)O)OC(OC9C(CSCCCCCCC(=O)O)OC(OC1C(O)C2O)C(O)C9O)C(O)C8O)C(O)C7O)C(O)C6O)C(O)C5O)C(O)C4O)C(O)C3O (stereo not drawn) [OKL-1172] | significant procoagulant activity | – | procoagulant effects | procoagulant activity | – | – | – | – | – | – | – | –
4 | OCCCCSCC1OC2OC3C(CSCCCCO)OC(OC4C(CSCCCCO)OC(OC5C(CSCCCCO)OC(OC6C(CSCCCCO)OC(OC7C(CSCCCCO)OC(OC8C(CSCCCCO)OC(OC9C(CSCCCCO)OC(OC1C(O)C2O)C(O)C9O)C(O)C8O)C(O)C7O)C(O)C6O)C(O)C5O)C(O)C4O)C(O)C3O (stereo not drawn) [OKL-1174] | strong procoagulant effects | – | procoagulant effects | procoagulant activity | strong procoagulant effects | – | – | – | – | – | – | –
5 | OCCCSCC1OC2OC3C(CSCCCO)OC(OC4C(CSCCCO)OC(OC5C(CSCCCO)OC(OC6C(CSCCCO)OC(OC7C(CSCCCO)OC(OC8C(CSCCCO)OC(OC1C(O)C2O)C(O)C8O)C(O)C7O)C(O)C6O)C(O)C5O)C(O)C4O)C(O)C3O (stereo not drawn) [OKL-1181] | significant procoagulant activity | – | procoagulant effects | procoagulant activity | – | – | – | – | – | – | – | –
6 | O=C(O)CCCCCSCC1OC2OC3C(CO)OC(OC4C(CO)OC(OC5C(CO)OC(OC6C(CO)OC(OC7C(CO)OC(OC1C(O)C2O)C(O)C7O)C(O)C6O)C(O)C5O)C(O)C4O)C(O)C3O (stereo not drawn) [OKL-1186, Alpha-mono-S—C6-acid] | substantial procoagulant effect | – | – | – | – | antagonized | antagonized | antagonized | antagonized | – | – | –
7 | O=C(O)CCCCCSCC1OC2OC3C(CSCCCCCC(=O)O)OC(OC4C(CSCCCCCC(=O)O)OC(OC5C(CSCCCCCC(=O)O)OC(OC6C(CSCCCCCC(=O)O)OC(OC7C(CSCCCCCC(=O)O)OC(OC1C(O)C2O)C(O)C7O)C(O)C6O)C(O)C5O)C(O)C4O)C(O)C3O (stereo not drawn) [OKL-1187, Alpha-per-S—C6-acid] | very strong procoagulant effect | – | procoagulant effects | – | – | strongly antagonized | strongly antagonized | strongly antagonized | strongly antagonized | concentration-dependently stimulated thrombin generation | – | –
8 | O=C(O)CCCCCCSCC1OC2OC3C(CO)OC(OC4C(CO)OC(OC5C(CO)OC(OC6C(CO)OC(OC7C(CO)OC(OC8C(CO)OC(OC1C(O)C2O)C(O)C8O)C(O)C7O)C(O)C6O)C(O)C5O)C(O)C4O)C(O)C3O (stereo not drawn) [OKL-1188] | strong procoagulant effect | – | procoagulant effects | procoagulant activity | – | antagonized | antagonized | antagonized | antagonized | – | – | –
9 | OCCCCSCC1OC2OC3C(CO)OC(OC4C(CO)OC(OC5C(CO)OC(OC6C(CO)OC(OC7C(CO)OC(OC8C(CO)OC(OC1C(O)C2O)C(O)C8O)C(O)C7O)C(O)C6O)C(O)C5O)C(O)C4O)C(O)C3O (stereo not drawn) [OKL-1189] | strong procoagulant activity | – | procoagulant effects | procoagulant activity | – | strongly antagonized | strongly antagonized | strongly antagonized | strongly antagonized | – | – | –
10 | O=C(O)CCCCCCSCC1OC2OC3C(CO)OC(OC4C(CO)OC(OC5C(CO)OC(OC6C(CO)OC(OC7C(CO)OC(OC8C(CO)OC(OC9C(CO)OC(OC1C(O)C2O)C(O)C9O)C(O)C8O)C(O)C7O)C(O)C6O)C(O)C5O)C(O)C4O)C(O)C3O (stereo not drawn) [OKL-1190] | procoagulant effect | – | – | – | – | antagonized | antagonized | antagonized | antagonized | – | – | –
11 | OCCCCSCC1OC2OC3C(CO)OC(OC4C(CO)OC(OC5C(CO)OC(OC6C(CO)OC(OC7C(CO)OC(OC8C(CO)OC(OC9C(CO)OC(OC1C(O)C2O)C(O)C9O)C(O)C8O)C(O)C7O)C(O)C6O)C(O)C5O)C(O)C4O)C(O)C3O (stereo not drawn) [OKL-1191] | Strong Procoagulant Activity | – | procoagulant effects | procoagulant activity | – | Antagonized | Antagonized | Antagonized | Antagonized | – | – | –
12 | O=C(NC[C@H]1CN(c2ccc(N3CCOCC3=O)cc2)C(=O)O1)c1ccc(Cl)s1 [rivaroxaban] | – | – | – | – | – | – | – | – | – | – | 10-13 clots | roughly doubled
